Assay results reported in article PMC10247784, “Physiological activation of human and mouse bitter taste receptors by bile acids” (Communications Biology, 2023).

Molecular target: T1, mouse Tas2r108 (Mus musculus, UniProt Q9JKT3)
T1 construct: expressed in transfected cells; host or cells: HEK293T-Gα16gust44
T1 sequence (Q9JKT3 1-297): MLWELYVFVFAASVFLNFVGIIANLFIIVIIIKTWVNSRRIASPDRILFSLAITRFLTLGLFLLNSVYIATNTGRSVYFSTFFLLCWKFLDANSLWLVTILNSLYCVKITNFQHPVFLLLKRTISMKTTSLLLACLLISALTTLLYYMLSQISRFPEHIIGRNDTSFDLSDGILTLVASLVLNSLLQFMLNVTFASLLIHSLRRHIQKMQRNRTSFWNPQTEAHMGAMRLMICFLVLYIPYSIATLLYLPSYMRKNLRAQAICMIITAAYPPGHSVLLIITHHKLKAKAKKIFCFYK
Assay: Calcium imaging assay (FLIPR), HEK293T-Gα16gust44 cells transfected with mouse Tas2r108
Type: cell-based
Procedure, shortened: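 Bile acids from DMSO stocks are applied to dye-loaded cells one day after transient receptor transfection, and calcium-dependent fluorescence is recorded. Maximum signal is standardized to basal and normalized to buffer-only wells, with empty-vector signal subtracted.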

RLU (Time 0 s): 0 RLU
RLU (Time 2 s): 10.4901 RLU
RLU (Time 4 s): 7.695 RLU
RLU (Time 6 s): 13.3996 RLU
RLU (Time 8 s): 21.0752 RLU
RLU (Time 12 s): 15.5762 RLU
RLU (Time 14 s): 3.43 RLU
RLU (Time 16 s): -9.281 RLU
RLU (Time 18 s): 0.8467 RLU
RLU (Time 137.562 s): 460.71 RLU
RLU (Time 143.562 s): 496.814 RLU
RLU (Time 149.562 s): 503.436 RLU
RLU (Time 155.562 s): 499.263 RLU
RLU (Time 161.562 s): 506.022 RLU
RLU (Time 167.562 s): 509.176 RLU
RLU (Time 173.562 s): 514.108 RLU
RLU (Time 179.562 s): 522.581 RLU
RLU (Time 185.562 s): 531.86 RLU
RLU (Time 191.562 s): 528.694 RLU
RLU (Time 197.562 s): 533.421 RLU
RLU (Time 203.562 s): 538.761 RLU
RLU (Time 209.562 s): 521.511 RLU
RLU (Time 215.562 s): 533.378 RLU
RLU (Time 221.562 s): 492.546 RLU
RLU (Time 227.562 s): 477.486 RLU
RLU (Time 233.562 s): 488.911 RLU
RLU (Time 239.562 s): 493.745 RLU
RLU (Time 245.562 s): 495.953 RLU
RLU (Time 293.562 s): 458.186 RLU
RLU (Time 299.562 s): 441.037 RLU
RLU (Time 305.562 s): 416.756 RLU
RLU (Time 311.562 s): 430.852 RLU
RLU (Time 317.562 s): 450.794 RLU
RLU (Time 323.562 s): 427.048 RLU
RLU (Time 329.562 s): 431.797 RLU
RLU (Time 335.562 s): 432.3 RLU
RLU (Time 341.562 s): 422.32 RLU
RLU (Time 347.562 s): 429.258 RLU
RLU (Time 353.562 s): 427.233 RLU
RLU (Time 359.562 s): 399.693 RLU
Activation threshold concentration Tas2r108 (p < 0.01 vs empty vector): 10 µM
RLU (time 18.797 s): 15.4 RLU
RLU (time 20.797 s): -4.333 RLU
RLU (time 22.797 s): -28.7534 RLU
RLU (time 24.797 s): -22.8768 RLU
RLU (time 26.797 s): 16.5718 RLU
RLU (time 28.797 s): 18.9437 RLU
RLU (time 30.797 s): 58.8166 RLU
RLU (time 32.797 s): 83.6402 RLU
RLU (time 34.797 s): 79.9664 RLU
RLU (time 36.797 s): 112.495 RLU
RLU (time 38.797 s): 144 RLU
RLU (time 40.797 s): 169.562 RLU
RLU (time 42.797 s): 181.196 RLU
RLU (time 44.797 s): 204.676 RLU
RLU (time 46.797 s): 240.06 RLU
RLU (time 48.797 s): 220.167 RLU
RLU (time 50.797 s): 217.063 RLU
RLU (time 52.797 s): 250.29 RLU
RLU (time 54.797 s): 263.514 RLU
RLU (time 56.797 s): 298.678 RLU
RLU (time 58.797 s): 286.664 RLU
RLU (time 60.797 s): 326.636 RLU
RLU (time 62.797 s): 300.232 RLU
RLU (time 64.797 s): 322.977 RLU
RLU (time 66.797 s): 299.438 RLU
RLU (time 68.797 s): 333.279 RLU
RLU (time 70.797 s): 356.797 RLU
RLU (time 72.797 s): 351.722 RLU
RLU (time 74.797 s): 354.974 RLU
RLU (time 76.797 s): 350.201 RLU
RLU (time 78.797 s): 373.335 RLU
RLU (time 80.797 s): 363.865 RLU
RLU (time 82.797 s): 378.202 RLU
RLU (time 84.797 s): 377.793 RLU
RLU (time 86.797 s): 374.495 RLU
RLU (time 88.797 s): 427.432 RLU
RLU (time 90.797 s): 391.234 RLU
RLU (time 92.797 s): 431.574 RLU
RLU (time 94.797 s): 429.345 RLU
RLU (time 96.797 s): 437.253 RLU
RLU (time 98.797 s): 431.746 RLU
RLU (time 100.797 s): 440.351 RLU
RLU (time 102.797 s): 434.297 RLU
RLU (time 104.797 s): 432.91 RLU
RLU (time 106.797 s): 451.262 RLU
RLU (time 108.797 s): 460.201 RLU
RLU (time 110.797 s): 466.157 RLU
RLU (time 112.797 s): 486.092 RLU
RLU (time 114.797 s): 411.046 RLU
RLU (time 116.797 s): 482.073 RLU
RLU (time 118.797 s): 468.374 RLU
RLU (time 120.797 s): 468.931 RLU
RLU (time 122.797 s): 478.657 RLU
RLU (time 124.797 s): 472.922 RLU
RLU (time 126.797 s): 476.391 RLU
RLU (time 128.797 s): 502.505 RLU
RLU (time 130.797 s): 473.229 RLU
RLU (time 132.797 s): 511.515 RLU
RLU (time 134.797 s): 493.882 RLU
RLU (time 136.797 s): 440.117 RLU
SMILES: C[C@H](CCC(=O)O)[C@H]1CC[C@H]2[C@@H]3CC[C@@H]4C[C@H](O)CC[C@]4(C)[C@H]3C[C@H](O)[C@]12C [Deoxycholic Acid, deoxycholic acid]
